The values that follow come from article PMC12344683, “N-alkyl and N-benzyl indoles are anti-SARS-CoV-2 agents and nsp13 inhibitors” (Journal of Enzyme Inhibition and Medicinal Chemistry, 2025).

In experiment [1] the target is T1, SARS-CoV-2 nsp13 (Severe acute respiratory syndrome coronavirus 2, UniProt P0DTD1). Kind of experiment: SARS-CoV-2 nsp13 unwinding-associated activity (fluorescence, BSA-TCEP). Format: biochemical. As to conditions: for IC50: SARS-CoV-2 nsp13-associated unwinding activity, from dose-response curves; for remaining activity at 30 µM: measured at 30 µM, read-out: Percentage of enzymatic residual activity (unwinding).

Experiment [2] addresses T1, SARS-CoV-2 nsp13. Nature of the experiment: SARS-CoV-2 nsp13 ATPase-associated activity (Biomol Green, BSA-TCEP). As to conditions: for IC50: SARS-CoV-2 nsp13-associated ATPase activity, from dose-response curves; for remaining activity at 30 µM: measured at 30 µM, read-out: Percentage of enzymatic residual activity (ATPase). Format: biochemical.
The mark [3] stands for this setting: Activity in enzyme assay IC50 Unwinding BSA-TCEP.
The mark [4] stands for this setting: Activity in enzyme assay IC50 ATPase BSA-TCEP.
[5] abbreviates: read-out: Activity in enzyme assay IC50 Unwinding BSA-TCEP.
Where [6] appears, read: read-out: Activity in enzyme assay IC50 ATPase BSA-TCEP.

Take `O=C(O)/C(O)=C/C(=O)c1cn(Cc2ccc(OC(F)(F)F)cc2)c2ccccc12` [7e]: the IC50 was 22.2 ± 1.37 µM in experiment [1] (setting [3]) and 20.3 µM in experiment [2] (setting [4]).

With `O=C(O)/C(O)=C/C(=O)c1cn(Cc2ccccc2)c2ccccc12` [7j, (Z)-4-(1-benzyl-1H-indol-3-yl)-2-hydroxy-4-oxobut-2-enoic acid], the figures for the half-maximal inhibitory concentration (IC50) in experiment [1] (setting [3]) and in experiment [2] (setting [4]) were 30 ± 1.5 µM and 10.3 ± 1.75 µM, respectively.

For the compound `CCOC(=O)/C(O)=C/C(=O)c1cn(Cc2ccc(OC)cc2)c2ccccc12` [8a], the values for the concentration for half-maximal inhibition (IC50) in experiment [1] (setting [3]) and in experiment [2] (setting [4]) were 13.1 ± 1.78 µM and 8.06 ± 1.78 µM, respectively.

On to `CCOC(=O)/C(O)=C/C(=O)c1cn(Cc2ccc(C)cc2)c2ccccc12` [8b], for which the values for the IC50 in experiment [1] (setting [3]) and in experiment [2] (setting [4]) were 13.2 ± 2.76 µM and 7.01 ± 0.05 µM, respectively.

In the case of `CCOC(=O)/C(O)=C/C(=O)c1cn(Cc2ccc(C(C)C)cc2)c2ccccc12` [8c], the half-maximal inhibitory concentration (IC50) in experiment [1] (setting [3]) amounted to 9.66 ± 2.89 µM; in experiment [2] (setting [4]), 9.64 ± 2.27 µM.

Turning to `CCOC(=O)/C(O)=C/C(=O)c1cn(Cc2ccc(OC(F)(F)F)cc2)c2ccccc12` [8e], the values for the 50% inhibitory concentration (IC50) in experiment [1] (setting [3]) and in experiment [2] (setting [4]) were 11.3 ± 0.65 µM and 2.29 ± 0.02 µM, respectively.

`CCOC(=O)/C(O)=C/C(=O)c1cn(Cc2ccccc2)c2ccccc12` [8j, Ethyl (Z)-4-(1-benzyl-1H-indol-3-yl)-2-hydroxy-4-oxobut-2-enoate]: the IC50 is 26 ± 0.89 µM in experiment [1] (setting [3]) and 14.5 ± 1.49 µM in experiment [2] (setting [4]).

As for `C/C=C/Cn1cc(/C=C/C(=O)/C=C(\O)C(=O)O)c2ccccc21` [9a, (2Z,5E)-6-(1-((E)-but-2-en-1-yl)-1H-indol-3-yl)-2-hydroxy-4-oxohexa-2,5-dienoic acid], the figures for the half-inhibitory concentration (IC50) in experiment [1] (setting [5]) and in experiment [2] (setting [6]) were 19.4 ± 3.7 µM and more than 30 µM, respectively. Further, in experiment [2], the remaining activity at 30 µM was 70%.

For the compound `C=C(C)Cn1cc(/C=C/C(=O)/C=C(\O)C(=O)O)c2ccccc21` [9b, (2Z,5E)-2-hydroxy-6-(1-(2-methylallyl)-1H-indol-3-yl)-4-oxohexa-2,5-dienoic acid], the IC50 in experiment [1] (setting [5]) and in experiment [2] (setting [6]) was more than 30 µM throughout. Moreover, the remaining activity at 30 µM was 72% in experiment [1] and 68% in experiment [2].

As for `CCn1cc(/C=C/C(=O)/C=C(\O)C(=O)O)c2ccccc21` [9d], the half-inhibitory concentration (IC50) in experiment [1] (setting [5]) was 11.8 ± 4.03 µM; in experiment [2] (setting [6]), 8.32 ± 0.08 µM.

As to `CCCCn1cc(/C=C/C(=O)/C=C(\O)C(=O)O)c2ccccc21` [9e, (2Z,5E)-6-(1-butyl-1H-indol-3-yl)-2-hydroxy-4-oxohexa-2,5-dienoic acid], the remaining activity at 30 µM is 41% in experiment [1] and 100% in experiment [2]. In addition, the IC50 in experiment [2] (setting [6]) was more than 30 µM.

`CC(C)CCn1cc(/C=C/C(=O)/C=C(\O)C(=O)O)c2ccccc21` [9f, (2Z,5E)-2-hydroxy-6-(1-isopentyl-1H-indol-3-yl)-4-oxohexa-2,5-dienoic acid]: the IC50 in experiment [1] (setting [5]) came to 15.9 ± 0.59 µM; in experiment [2] (setting [6]), 23.1 ± 1.41 µM.

Regarding `C/C=C/Cn1cc(/C=C/C(=O)/C=C(\O)C(=O)OCC)c2ccccc21` [10a, Ethyl (2Z,5E)-6-(1-((E)-but-2-en-1-yl)-1H-indol-3-yl)-2-hydroxy-4-oxohexa-2,5-dienoate], the concentration for half-maximal inhibition (IC50) was 13.2 ± 1.86 µM in experiment [1] (setting [5]) and 8.79 ± 0.69 µM in experiment [2] (setting [6]).

For the compound `C=C(C)Cn1cc(/C=C/C(=O)/C=C(\O)C(=O)OCC)c2ccccc21` [10b, Ethyl (2Z,5E)-2-hydroxy-6-(1-(2-methylallyl)-1H-indol-3-yl)-4-oxohexa-2,5-dienoate], the IC50 in experiment [1] (setting [5]) was 21.5 ± 0.23 µM; in experiment [2] (setting [6]), 7.26 ± 0.65 µM.

As to `CCOC(=O)/C(O)=C/C(=O)/C=C/c1cn(C=C(C)C)c2ccccc12` [10c, Ethyl (2Z,5E)-2-hydroxy-6-(1-(2-methylprop-1-en-1-yl)-1H-indol-3-yl)-4-oxohexa-2,5-dienoate], the concentration for half-maximal inhibition (IC50) stood at 19.3 ± 0.76 µM in experiment [1] (setting [5]) and 4.93 ± 1.4 µM in experiment [2] (setting [6]).

Regarding `CCOC(=O)/C(O)=C/C(=O)/C=C/c1cn(CC)c2ccccc12` [10d], the half-inhibitory concentration (IC50) turned out to be 11.8 ± 4.03 µM in experiment [1] (setting [5]) and 18.5 ± 0.65 µM in experiment [2] (setting [6]).

As for `CCCCn1cc(/C=C/C(=O)/C=C(\O)C(=O)OCC)c2ccccc21` [10e, Ethyl (2Z,5E)-6-(1-butyl-1H-indol-3-yl)-2-hydroxy-4-oxohexa-2,5-dienoate], the values for the concentration for half-maximal inhibition (IC50) in experiment [1] (setting [5]) and in experiment [2] (setting [6]) were 14.8 ± 1.18 µM and 5.72 ± 1.63 µM, respectively.
